One data set has as its system hla-lacZ fusion. Nature of the data set: β-galactosidase chemiluminescent reporter assay of the chromosomal hla-lacZ fusion (hla expression). Type of data set: cell-based, S. aureus Wood 46-3. As to conditions: for influence on hla expression (in words): subinhibitory concentrations of antibiotics.
For another data set, the system named is hla mRNA. Nature of the data set: Northern blot analysis with intragenic hla probe. The settings on record: 0.5 µg/ml methicillin versus without antibiotic.
The conditions of data set [1]: mouse model; cited from earlier work.
A further data set concerns α-toxin. As to conditions: in vitro; cited from earlier work.

Consider `COc1cc(Cc2cnc(N)nc2N)cc(OC)c1OC` [Trimethoprim], for which the “influence on hla expression (in words)” value with hla-lacZ fusion was “weak stimulatary effect”.
Take `COc1cccc(OC)c1C(=O)N[C@@H]1C(=O)N2[C@@H]1SC(C)(C)[C@@H]2C(=O)O` [Methicillin]: the “amount of hla mRNA detected by Northern hybridization” value in the data set with hla mRNA is “greater amount of hla mRNA”. Besides, in the data set with hla-lacZ fusion (quarter of the MIC, postexponential phase), the “increase of the β-galactosidase activity compared to medium without antibiotic” value is on record as “sixfold increase”. In the data set with hla-lacZ fusion, the “influence on hla expression (in words)” value is “dramatically increased”.
In the case of `CN[C@H](CC(C)C)C(=O)N[C@H]1C(=O)N[C@@H](CC(N)=O)C(=O)N[C@H]2C(=O)N[C@H]3C(=O)N[C@H](C(=O)N[C@H](C(=O)O)c4cc(O)cc(O)c4-c4cc3ccc4O)[C@H](O)c3ccc(c(Cl)c3)Oc3cc2cc(c3O[C@@H]2O[C@H](CO)[C@@H](O)[C@H](O)[C@H]2O[C@H]2C[C@](C)(N)[C@H](O)[C@H](C)O2)Oc2ccc(cc2Cl)[C@H]1O` [Vancomycin], the “influence on hla expression (in words)” value in the data set with hla-lacZ fusion was “weak stimulatary effect”.
On the same count and under the same terms, in the case of `C[C@@H]1O[C@@H]1P(=O)(O)O` [Fosfomycin] it was “weak stimulatary effect”.
For the molecule `CCOc1ccc2ccccc2c1C(=O)N[C@@H]1C(=O)N2[C@@H]1SC(C)(C)[C@@H]2C(=O)O` [nafcillin], the “lethal activity of broth filtrates” value in data set [1] was “increases”. The α-toxin production entry with α-toxin is on record as “induces”.
As for `CC[C@H]1OC(=O)[C@H](C)[C@@H](O[C@H]2C[C@@](C)(OC)[C@@H](O)[C@H](C)O2)[C@H](C)[C@@H](O[C@@H]2O[C@H](C)C[C@H](N(C)C)[C@H]2O)[C@](C)(O)C[C@@H](C)C(=O)[C@H](C)[C@@H](O)[C@]1(C)O` [Erythromycin], the “influence on hla expression (in words)” value with hla-lacZ fusion is listed as “repressed”.
In the data set with hla-lacZ fusion (0.8 M NaCl in LB broth, postexponential), `[Cl-].[Na+]` [NaCl, sodium chloride] returned a β-galactosidase production of 7800 RLU. In addition, the “effect on hla expression (in words)” value in the data set with hla-lacZ fusion (NaCl above 1.6 M) is “inhibitory”.
On to `Cc1onc(-c2ccccc2)c1C(=O)N[C@@H]1C(=O)N2[C@@H]1SC(C)(C)[C@@H]2C(=O)O` [Oxacillin], for which the “influence on hla expression (in words)” value in the data set with hla-lacZ fusion is given as “dramatically increased”.
